{
  "source": "patent US10239878B2",
  "about": "“Macrocyclic ligands with pendant chelating moieties and complexes thereof” (LUMIPHORE, INC., priority 2016, dated 2019)",
  "key": {"[1]": {"experiment": "Stability of 43⋅Eu luminescence in the presence of ca. 25 mM competitors", "type": "physicochemical", "description": "In order for a luminescent metal complex to be useful in a practical sense, it must be stable in the presence of common competitive metal cations and chelating ligands. We measured the stability of 43 ⋅Eu (ca. 7 μM) dissolved in TBS buffer, with various competitors present at ca. 25 mM concentration. Specifically, manganese dichloride tetrahydrate (14.8 mg, 74.8 μmol) was dissolved into TBS buffer (100 μL), and added to an aliquot of 43⋅Eu (3 mL), making the final concentration of Mn(II) 24.1 mM. Magnesium chloride hexahydrate (33.6 mg, 165 μmol) was dissolved into TBS buffer (200 μL), and 100 μL was added to an aliquot of 43⋅Eu (3 mL), making the final concentration of Mg(II) 26.7 mM. Calcium chloride hexahydrate (55.8 mg, 255 μmol) was dissolved into TBS buffer (300 μL), and 100 μL was added to an aliquot of 43 ⋅Eu (3 mL), making the final concentration of Ca(II) 27.4 mM. For DTPA, first KOH (95.9 mg, 1.71 mmol) was dissolved into 1 mL of water, and 389 μL of this basic solution (5 equivalents) was used to dissolve DTPA (52.3 mg, 133 μmol). Then, 219 μL of this DTPA solution was added to an aliquot of 43⋅Eu (3 mL), making the final concentration of DTPA 23.4 mM. EDTA (0.5 M, pH=8, 150 μL) was added to an aliquot of 43 ⋅Eu (3 mL), making the final concentration of EDTA 23.8 mM. For phosphate competition, the methanolic stock of 43⋅Eu was diluted to ca. 7 μM in 25 mM phosphate buffer (pH=8)."}, "[2]": {"experiment": "Photophysical characterization of Eu complexes (UV-vis absorption, quantum yield, lifetime)", "type": "physicochemical", "description": "The europium complexes of ligands 16, 29, 33, 40, and 43 were prepared by separately dissolving each ligand (2 mg) into methanol (200 μL). Excess europium chloride hexahydrate (˜5 equivalents) was dissolved in methanol (200 μL) and the full volume was added to each of the ligand solutions. The solvent was removed, and the residue was dissolved into DMF (50 μL). The europium complexes were then purified by semi-prep HPLC on an Agilent 1260 Infinity instrument using an Eclipse XDB-C18 column (5 μm, 9.4×250 mm). The mobile phase was 10 to 30% acetonitrile in water containing 0.1% trifluoroacetic acid. The volatiles were removed from the HPLC eluents under vacuum, and the residues were separately dissolved into methanol (500 μL) to give methanolic stock solutions of each europium complex with greater than 98% purity. A few drops of these methanolic solutions were evaporated to dryness, and then the residue was dissolved into TBS buffer at a concentration of ca. 3 μM to make aqueous stock solutions (20 mL) with an absorbance of 0.05 (1 cm path length) at 365 nm. Five dilutions (1/6, 2/6, 3/6, 4/6, and 5/6) were made from these aqueous stock solutions to yield six samples with evenly spaced concentrations (3 mL volume each). Quinine sulfate dissolved in 0.05 M sulfuric acid was similarly diluted to a final absorbance of 0.05 at 365 nm, and this solution was similarly (1/6, 2/6, 3/6, 4/6, and 5/6) diluted to afford six quinine sulfate reference samples of evenly spaced concentration. Quinine sulfate in 0.05 M sulfuric acid was used as the quantum yield standard (Φ=0.508). By measuring the absorbance and luminescence of these dilute solutions, the quantum yields of the new Eu complexes were determined. A 5 cm path-length quartz cell was used to measure the absorbance of these dilute solutions in order to improve the UV-vis signal-to-noise. Steady state photoluminescence measurements were collected in a 1 cm fluorescence cuvette at 365 nm excitation wavelength, 1 nm resolution, 10 nm excitation slit width, 1 nm emission slit width, and 0.2 sec integration time on an instrument that has been described elsewhere (D'Aléo, A.; Moore, E. G.; Szigethy, G.; Xu, J.; Raymond, K. N. Inorg. Chem. 2009, 48, 9316.). Absorption spectra were measured at 1 nm resolution, and the absorbance of each sample was taken as the average absorbance measured from 360-370 nm to reflect the 10 nm excitation slit width used for luminescence measurements. The data derived from these experiments, and from the titration experiments in example 11 are tabulated below."}},
  "data": [
    {"smiles": "NCCOCCNC(=O)C1CCCN(C(=O)c2cccc(=O)n2[O-])CCCNC(=O)c2ccc(n([O-])c2=O)C(=O)NC2COCC2NC(=O)c2ccc(c(=O)n2[O-])C(=O)NCCCN1C(=O)c1cccc(=O)n1[O-].[Eu+3]", "note": "(mixture of isomers) [43⋅Eu]", "values": [
      {"measurement": "change in sample brightness", "setting": "[1]; 25 mM phosphate buffer pH=8, 24 hours", "result": "no detectable change"},
      {"measurement": "change in sample brightness", "setting": "[1]; Ca(II) 27.4 mM, TBS buffer, 24 hours", "result": "no detectable change"},
      {"measurement": "brightness remaining (of the original brightness)", "setting": "[1]; DTPA 23.4 mM, TBS buffer, after 24 hours", "result": 83, "unit": "%"},
      {"measurement": "brightness remaining", "setting": "[1]; EDTA 23.8 mM, TBS buffer, 24 hours", "result": 96, "unit": "%"},
      {"measurement": "change in sample brightness", "setting": "[1]; Mg(II) 26.7 mM, TBS buffer, 24 hours", "result": "no detectable change"},
      {"measurement": "brightness remaining", "setting": "[1]; Mn(II) 24.1 mM, TBS buffer, 24 hours", "result": 89, "unit": "%"},
      {"measurement": "ε260/ε at λmax", "setting": "[2]; TBS buffer, pH 7.6", "result": 1.52},
      {"measurement": "ε280/ε at λmax", "setting": "[2]; TBS buffer, pH 7.6", "result": 1.20},
      {"measurement": "λmax", "setting": "[2]; TBS buffer, pH 7.6", "result": 358, "unit": "nm"},
      {"measurement": "Φtotal at 365 nm excitation", "setting": "[2]; TBS buffer, quinine sulfate as quantum yield standard", "result": 28.8, "unit": "%"},
      {"measurement": "Lifetime", "setting": "[2]; luminescence, HPLC purified Eu complexes", "result": 734, "unit": "μs"}
    ]}
  ]
}
